The source of these data is DBAASP.

Each structure is given as a SMILES string. In brackets after ≈: the same amount, converted by molar mass. Several values for one entry are separate records, joined by “and”; a condition that tells them apart may be missing. Equal entries are not always repeated. Where only a bound is given, the exact number is not on record here.

Test systems include Escherichia coli 078; Escherichia coli K88; Escherichia coli K99; Escherichia coli UB1005; Acinetobacter baumannii; Candida albicans.
Holding throughout (assay): ≥ marks a high value that may be exact or a test limit, other limits are often not marked, values filed in µg/mL are converted to µM
In assay [1] the test system is Candida albicans CGMCC 2.2086.
Assay [2] deals with Candida parapsilosis CGMCC 2.3989.
Assay [3] has as its system Candida tropicalis CGMCC 2.1975.
The test system of assay [4] is Pseudomonas aeruginosa ATCC 27853.
Assay [5] relates to Salmonella enterica subsp. enterica serovar Pullorum ATCC 7913.
Assay [6] has as its system Salmonella enterica subsp. enterica serovar Typhimurium ATCC 14028.
The test system of assay [7] is Salmonella enterica subsp. enterica serovar Typhimurium C77-31.
Assay [8] concerns Staphylococcus aureus ATCC 25923.
Assay [9] deals with Staphylococcus aureus ATCC 29213.
Assay [10] concerns Staphylococcus aureus ATCC 43300.
The test system of assay [11] is Staphylococcus epidermidis ATCC 12228.
For assay [12], the system named is Bacillus cereus CGMCC 1.932.
Assay [13] deals with Bacillus subtilis CMCC 63501.
The subject of assay [14] is Enterococcus faecalis ATCC 29212.
Assay [15] deals with Listeria monocytogenes CGMCC 1.1075.
Assay [16] relates to Pseudomonas aeruginosa PAO1.
Assay [17] deals with Salmonella typhimurium ATCC 7731.
In assay [18] the test system is Salmonella enterica subsp. enterica serovar Choleraesuis CVCC 503.
Assay [19] deals with Pseudomonas aeruginosa H1001.

By MIC is commonly meant the smallest concentration in the dilution series that meets the test's criterion for growth inhibition. For the compound `CC[C@H](C)[C@H](NC(=O)[C@H](CCCN=C(N)N)NC(=O)[C@H](C)NC(=O)[C@H](C)N)C(=O)N[C@H](C(=O)N[C@@H](CC(C)C)C(=O)N[C@@H](CCCN=C(N)N)C(=O)N[C@@H](CC(N)=O)C(=O)N[C@@H](CCCN=C(N)N)C(=O)N[C@@H](Cc1ccccc1)C(=O)N[C@@H](CCCN=C(N)N)C(N)=O)[C@@H](C)CC` [AARIILRNRFR], the minimal inhibitory concentration (MIC) in assay [1] is not below 128 µM; in assay [2], not below 128 µM; in assay [3], not below 128 µM; against Escherichia coli 078, 16 µM (≈ 22.2 µg/mL); in the assay on Escherichia coli K88, not below 32 µM; in the assay on Escherichia coli K99, 16 µM (≈ 22.2 µg/mL). Further, the MIC against Escherichia coli UB1005 was 16 µM (≈ 22.2 µg/mL); in [4], more than 128 µM; in assay [5], 16 µM (≈ 22.2 µg/mL); in [6] it was 32 µM (≈ 44.3 µg/mL); in [7] it was not below 32 µM; in assay [8], more than 128 µM. For the same compound, the MIC in [9], in assay [10] and in assay [11] was more than 128 µM each time.

Consider `CC(C)C[C@H](NC(=O)[C@H](CCCN=C(N)N)NC(=O)[C@H](Cc1c[nH]c2ccccc12)NC(=O)[C@H](CCCN=C(N)N)NC(=O)[C@H](Cc1c[nH]c2ccccc12)NC(=O)[C@H](Cc1c[nH]c2ccccc12)NC(=O)[C@H](Cc1c[nH]c2ccccc12)NC(=O)[C@H](CCCN=C(N)N)NC(=O)[C@H](Cc1c[nH]c2ccccc12)NC(=O)[C@H](CCCN=C(N)N)NC(=O)CN)C(N)=O` [GRWRWWWRWRL], for which the MIC in the assay on Acinetobacter baumannii is 1 µM (≈ 1.74 µg/mL); in assay [12] it was 8 µM (≈ 13.9 µg/mL); in [13], 4 µM (≈ 6.97 µg/mL); in [14] it was more than 32 µM; in the assay on Escherichia coli 078, 2 µM (≈ 3.49 µg/mL); against Escherichia coli K88, 2 µM (≈ 3.49 µg/mL). In addition, the MIC against Escherichia coli K99 was found to be 4 µM (≈ 6.97 µg/mL); against Escherichia coli UB1005, 2 µM (≈ 3.49 µg/mL); in assay [15], 2 µM (≈ 3.49 µg/mL); in assay [4], 4 µM (≈ 6.97 µg/mL); in [16] it was 4 µM (≈ 6.97 µg/mL); in assay [5] it was 2 µM (≈ 3.49 µg/mL). Moreover, the MIC is 4 µM (≈ 6.97 µg/mL) in [6]; 4 µM (≈ 6.97 µg/mL) in [17]; 2 µM (≈ 3.49 µg/mL) in [8]; 2 µM (≈ 3.49 µg/mL) in [10]; 2 µM (≈ 3.49 µg/mL) in assay [11].

`C[C@H](NC(=O)[C@H](Cc1c[nH]c2ccccc12)NC(=O)[C@H](Cc1c[nH]c2ccccc12)NC(=O)[C@H](CCCN=C(N)N)NC(=O)[C@H](CCCN=C(N)N)NC(=O)[C@H](Cc1c[nH]c2ccccc12)NC(=O)[C@H](CCCN=C(N)N)NC(=O)[C@H](CCCN=C(N)N)NC(=O)[C@H](Cc1c[nH]c2ccccc12)NC(=O)[C@H](Cc1c[nH]c2ccccc12)NC(=O)CN)C(N)=O` [GWWRRWRRWWA]: the MIC in the assay with Acinetobacter baumannii was determined as 1 µM (≈ 1.7 µg/mL); in assay [12] it was 2 µM (≈ 3.4 µg/mL); in assay [13] it was 0.5 µM (≈ 0.85 µg/mL); in assay [14], 4 µM (≈ 6.8 µg/mL); with Escherichia coli 078 it was 8 µM (≈ 13.6 µg/mL); against Escherichia coli K88 it was 2 µM (≈ 3.4 µg/mL). Besides, the MIC was found to be 4 µM (≈ 6.8 µg/mL) in the assay on Escherichia coli K99; 2 µM (≈ 3.4 µg/mL) with Escherichia coli UB1005; 2 µM (≈ 3.4 µg/mL) in [15]; 4 µM (≈ 6.8 µg/mL) in assay [4]; 2 µM (≈ 3.4 µg/mL) in [16]; 2 µM (≈ 3.4 µg/mL) in assay [5]. For the same compound, the minimal inhibitory concentration (MIC) turned out to be 4 µM (≈ 6.8 µg/mL) in assay [6]; 4 µM (≈ 6.8 µg/mL) in [17]; 2 µM (≈ 3.4 µg/mL) in assay [8]; 2 µM (≈ 3.4 µg/mL) in assay [10]; 2 µM (≈ 3.4 µg/mL) in [11].

For `CC(C)C[C@H](NC(=O)[C@H](CCCCN)NC(=O)[C@H](CCCCN)NC(=O)[C@H](CC(C)C)NC(=O)[C@H](CCCN=C(N)N)NC(=O)[C@H](CS)NC(=O)[C@H](C)NC(=O)[C@H](CC(C)C)NC(=O)[C@H](CCCCN)NC(=O)[C@H](CCCCN)NC(=O)[C@H](CC(C)C)NC(=O)[C@H](CCCN=C(N)N)NC(=O)[C@H](CS)NC(=O)[C@H](C)NC(=O)[C@H](CC(C)C)NC(=O)[C@H](CCCCN)NC(=O)[C@H](CCCCN)NC(=O)[C@@H](N)CC(C)C)C(=O)N[C@@H](C)C(=O)N[C@@H](CS)C(=O)N[C@@H](CCCN=C(N)N)C(N)=O` [LKKLACRLKKLACRLKKLACR], the MIC is 8 µM and 16 µM in assay [1]; 4 µM (≈ 9.83 µg/mL) with Candida albicans; 8 µM (≈ 19.7 µg/mL) in assay [2]; 1 µM (≈ 2.46 µg/mL) in assay [3]; 16 µM (≈ 39.3 µg/mL) in assay [14]; 2 µM (≈ 4.91 µg/mL) against Escherichia coli UB1005. Also, the MIC in [4] was found to be 4 µM (≈ 9.83 µg/mL); in assay [16] it was 4 µM (≈ 9.83 µg/mL); in assay [18], 2 µM (≈ 4.91 µg/mL); in assay [6], 4 µM (≈ 9.83 µg/mL); in assay [7] it was 8 µM (≈ 19.7 µg/mL); in assay [8] it was 16 µM (≈ 39.3 µg/mL). In addition, the values for the MIC in assay [9], in assay [10] and in assay [11] were 8 µM (≈ 19.7 µg/mL), 4 µM (≈ 9.83 µg/mL) and 16 µM (≈ 39.3 µg/mL), respectively.

With `C[C@H](NC(=O)[C@H](CCCN=C(N)N)NC(=O)[C@H](Cc1c[nH]c2ccccc12)NC(=O)[C@H](CCCN=C(N)N)NC(=O)[C@H](Cc1c[nH]c2ccccc12)NC(=O)[C@H](Cc1c[nH]c2ccccc12)NC(=O)[C@H](Cc1c[nH]c2ccccc12)NC(=O)[C@H](CCCN=C(N)N)NC(=O)[C@H](Cc1c[nH]c2ccccc12)NC(=O)[C@@H](N)CCCN=C(N)N)C(N)=O` [RWRWWWRWRA], the MIC in the assay with Acinetobacter baumannii came to 1 µM (≈ 1.64 µg/mL); in [12], 16 µM (≈ 26.3 µg/mL); in assay [13] it was 2 µM (≈ 3.29 µg/mL); in [14] it was 4 µM (≈ 6.58 µg/mL); against Escherichia coli 078 it was 2 µM (≈ 3.29 µg/mL); against Escherichia coli K88, 2 µM (≈ 3.29 µg/mL). Moreover, the MIC against Escherichia coli K99 stood at 2 µM (≈ 3.29 µg/mL); against Escherichia coli UB1005 it was 2 µM (≈ 3.29 µg/mL); in assay [15], 1 µM (≈ 1.64 µg/mL); in assay [4], 8 µM (≈ 13.2 µg/mL); in assay [16] it was 8 µM (≈ 13.2 µg/mL); in assay [5], 8 µM (≈ 13.2 µg/mL). Besides, the MIC in [6] was 4 µM (≈ 6.58 µg/mL); in assay [17], 8 µM (≈ 13.2 µg/mL); in assay [8] it was 4 µM (≈ 6.58 µg/mL); in [10], 2 µM (≈ 3.29 µg/mL); in [11], 2 µM (≈ 3.29 µg/mL).

Regarding `CC[C@H](C)[C@H](NC(=O)[C@H](CCCN=C(N)N)NC(=O)[C@H](CCCN=C(N)N)NC(=O)[C@@H]1CCCN1C(=O)[C@@H]1CCCN1C(=O)[C@H](CCCN=C(N)N)NC(=O)[C@@H]1CCCN1C(=O)[C@H](CCCN=C(N)N)NC(=O)[C@@H]1CCCN1C(=O)[C@H](CC(C)C)NC(=O)[C@H](Cc1ccc(O)cc1)NC(=O)[C@@H]1CCCN1C(=O)[C@@H]1CCCN1C(=O)[C@H](CCCCN)NC(=O)[C@H](CC(=O)O)NC(=O)[C@@H](N)C(C)C)C(=O)N[C@@H](Cc1ccc(O)cc1)C(=O)N[C@@H](CCCCN)C(=O)N[C@@H](CCCN=C(N)N)C(=O)NCC(=O)O` [VDKPPYLPRPRPPRRIYKRG], the MIC in assay [19] turned out to be 0.106 µM (≈ 0.26 µg/mL).

For the compound `CC(C)C[C@H](NC(=O)[C@H](Cc1ccc(O)cc1)NC(=O)[C@@H]1CCCN1C(=O)[C@@H]1CCCN1C(=O)[C@H](CCCCN)NC(=O)[C@H](CC(=O)O)NC(=O)[C@@H](N)C(C)C)C(=O)N1CCC[C@H]1C(=O)N[C@@H](CCCN=C(N)N)C(=O)N1CCC[C@H]1C(=O)N[C@@H](CCCN=C(N)N)C(=O)N1CCC[C@H]1C(=O)N1CCC[C@H]1C(=O)N[C@@H](CCCN=C(N)N)C(=O)N[C@@H](CCCN=C(N)N)C(=O)N[C@@H](CCCCN)C(=O)N[C@@H](Cc1ccc(O)cc1)C(=O)N[C@@H](CC(N)=O)C(=O)N[C@@H](CCCN=C(N)N)C(=O)NCC(=O)O` [VDKPPYLPRPRPPRRKYNRG], in assay [19], the MIC came out at 0.0487 µM (≈ 0.12 µg/mL).
